Measurements published in PubChem BioAssay (NCI).
Where “and” joins values, the source holds several entries; their conditions need not be identical. Identical values can stand only once.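 Cultured in 96-well plates, cells were exposed to test compound for 48 hours across five concentrations. At the GI50, growth is halved. Definition used: TGI = concentration required for complete inhibition of growth.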

What was measured:
Experiment in all cases: DTP human tumour cell line panel, 48 h
[1] = system: HCT-116 colon
[2] = system: MALME-3M melanoma
[3] = system: DU-145 prostate
[4] = system: SW-620 colon
[5] = system: A498 renal
[6] = system: U251 CNS
[7] = system: OVCAR-3 ovarian
[8] = system: HCC-2998 colon
[9] = system: SF-268 CNS
[10] = system: TK-10 renal

CO[C@@H]1[C@H](OC(=O)NC(=O)CCl)CC[C@]2(CO2)[C@H]1[C@@]1(C)O[C@@H]1CC=C(C)C
GI50 [1]: 2.77 µM and 11.2 µM and 2.96 µM | TGI [1]: 28.7 µM and 40.9 µM | GI50 [2]: 4.16 µM | TGI [2]: 18.5 µM and 18.7 µM | GI50 [3]: 22.2 µM | TGI [3]: 29.3 µM and 46.3 µM | GI50 [4]: 5.73 µM and 4.16 µM | TGI [4]: 51.7 µM and 41.3 µM | GI50 [5]: 38.6 µM | TGI [5]: 33.5 µM and 74 µM | GI50 [6]: 4.98 µM and 0.575 µM | TGI [6]: 20.8 µM and 13.3 µM | GI50 [7]: 8.68 µM | TGI [7]: 21.3 µM and 30.7 µM | TGI [8]: 10.8 µM | GI50 [9]: 20 µM | TGI [9]: 33.6 µM and 74.5 µM | GI50 [10]: 14.1 µM | TGI [10]: 41.3 µM and 41.7 µM

COc1ccc(/C=C/c2n[nH]c3ccc(N4CCOC4=O)cc23)cc1
GI50 [1]: 0.693 µM | TGI [1]: 13.6 µM | GI50 [2]: 4.3 µM | TGI [2]: 8.66 µM | GI50 [3]: 3.43 µM | TGI [3]: > 100 µM | GI50 [4]: 1.64 µM | TGI [4]: 10.8 µM | GI50 [5]: 3.57 µM | TGI [5]: 7.01 µM | GI50 [6]: 2.51 µM | TGI [6]: > 100 µM | GI50 [7]: 2.97 µM | TGI [7]: 9.42 µM | GI50 [8]: 2.3 µM | TGI [8]: 7.17 µM | GI50 [9]: 3.64 µM | TGI [9]: > 100 µM | GI50 [10]: 3.12 µM | TGI [10]: 26.2 µM

NCCNC(=S)S
TGI [1]: > 100 µM | TGI [2]: 30 µM | TGI [3]: > 100 µM | TGI [4]: > 100 µM | TGI [5]: > 100 µM | TGI [6]: > 100 µM | TGI [7]: > 100 µM | TGI [8]: > 100 µM | TGI [9]: 31.1 µM | TGI [10]: > 100 µM

COc1cc(-n2cc(-c3ccc(Cl)cc3)[nH]c2=O)cc(OC)c1OC
GI50 [1]: 35.4 µM | TGI [1]: > 100 µM | GI50 [2]: 32 µM | TGI [2]: 77.4 µM | GI50 [3]: 57.4 µM | TGI [3]: > 100 µM | GI50 [4]: > 100 µM | TGI [4]: > 100 µM | GI50 [5]: 19.8 µM | TGI [5]: 44.8 µM | GI50 [6]: 20.9 µM | TGI [6]: 45.1 µM | GI50 [7]: 21 µM | TGI [7]: 50.1 µM | GI50 [8]: 47.4 µM | TGI [8]: > 100 µM | GI50 [9]: 30.4 µM | TGI [9]: 88.6 µM | GI50 [10]: 18.5 µM | TGI [10]: 42.8 µM

NS(=O)(=O)c1ccc(N2N=C3c4ccccc4CC3C2c2ccc(Cl)cc2)cc1 (stereo not drawn)
GI50 [1]: 6.04 µM | TGI [1]: > 100 µM | GI50 [2]: 4.23 µM | TGI [2]: 19.6 µM | GI50 [3]: 14.2 µM | TGI [3]: 36.7 µM | GI50 [4]: 4.71 µM | TGI [4]: 29.8 µM | GI50 [5]: 2.55 µM | TGI [5]: 6.6 µM | GI50 [6]: 20.2 µM | TGI [6]: 42.5 µM | GI50 [7]: 17.3 µM | TGI [7]: 34.7 µM | GI50 [8]: 10.3 µM | TGI [8]: 27.7 µM | GI50 [9]: 22.1 µM | TGI [9]: 54 µM | GI50 [10]: 8.32 µM | TGI [10]: 27.3 µM

COC1=CC(c2ccc[nH]2)=N/C1=C\c1ccc[nH]1
GI50 [1]: 0.0238 µM | GI50 [2]: 0.723 µM | TGI [2]: 4.25 µM | GI50 [3]: 0.163 µM | TGI [3]: 13.3 µM | GI50 [4]: 0.0393 µM | TGI [4]: 13.8 µM | GI50 [5]: 3.65 µM | TGI [5]: 14.4 µM | GI50 [6]: 0.379 µM | TGI [6]: 12.4 µM | GI50 [7]: 0.0964 µM | TGI [7]: 3.8 µM | GI50 [8]: 0.361 µM | TGI [8]: 9.54 µM | GI50 [9]: 0.254 µM | TGI [9]: 15.9 µM | GI50 [10]: 0.232 µM | TGI [10]: 7.79 µM

CSc1nc2sc3cc(Cl)ccc3n2c(=N)c1C#N
GI50 [1]: > 25.7 µM | TGI [1]: > 100 µM | GI50 [2]: 14.7 µM | TGI [2]: > 100 µM | GI50 [3]: > 68.7 µM | TGI [3]: > 100 µM | GI50 [4]: 38.2 µM | TGI [4]: > 100 µM | GI50 [5]: 29.6 µM | TGI [5]: > 100 µM | GI50 [6]: > 55 µM | TGI [6]: > 100 µM | GI50 [7]: 11.8 µM | TGI [7]: > 100 µM | GI50 [8]: 18.5 µM | TGI [8]: > 100 µM | GI50 [9]: 14 µM | TGI [9]: > 100 µM | GI50 [10]: 14.1 µM | TGI [10]: > 73.3 µM
